Source: patent publication US20250009745A1, “CDK INHIBITOR” (SHANGHAI QILU PHARMACEUTICAL RESEARCH AND DEVELOPMENT …, priority 2021, published 2025)

Legend:
CDK2 = molecular target: T1, CDK2 (Homo sapiens, UniProt P24941); experiment: CDK enzymology experiment in vitro, capillary mobility shift assay (MSA); type: biochemical; details: read-out: CDK2 (nM) inhibitory IC50
T1 construct: purchased Carna Company
Description: (§1) CDK1/CDK2/CDK4/CDK6/CDK7/CDK9 were purchased from Carna Company; Carliper substrate CTD3/substrate 18/substrate 8 were purchased from Gil Biochemical Company; Dinaciclib/Palbociclib were purchased from Selleckchem Company; DMSO was purchased from Sigma Company; 384-well plates were purchased from Corning Company.
(§2) • (1) Preparation of 1×Kinase buffer. • (2) Preparation of compound concentration gradient: Test concentration of the test compound was started at 1 μM, 10 μM or 30 μM, 3-fold dilution, 10 concentrations, detected in duplicate. The test compound was diluted to a 100-fold final concentration with 100% DMSO solution in a 384 source plate. Liquid handler Echo 550 was used to transfer 250 nL of 100-fold final concentration of the compound to the target plate 384-well plate. […] The 384-well plate was centrifuged at 1000 rpm for 30 seconds, and shaken to mix uniformly. • (10) The conversion rate was read with Caliper EZ Reader.
(§3) Where, conversion %_sample is the readings of conversion rate of the sample; conversion %_min: the average value of negative control wells, representing the readings of conversion rate of wells without enzyme activity; conversion %_max: the average value of positive control wells, representing the readings of conversion rate of wells without compound inhibition.
(§4) Taking the log value of the concentration as the X-axis, and the percentage inhibition rate as the Y-axis, the dose-effect curve was fitted using the log(inhibitor) vs. response—Variable slope of the analysis software GraphPad Prism 5 so as to obtain the IC50 value of each compound on the enzyme activity.
(§5) Y=Bottom+(Top−Bottom)/(1+10^((Log IC50−X)*HillSlope)). Calculation formula: […]

CDK4 = molecular target: T2, CDK4 (Homo sapiens, UniProt P11802); experiment: as above; type: biochemical; details: read-out: CDK4 (nM) inhibitory IC50
T2 construct: purchased Carna Company
Description: as §1, §2, §3, §4, §5

T2 sequence (P11802 whole entry): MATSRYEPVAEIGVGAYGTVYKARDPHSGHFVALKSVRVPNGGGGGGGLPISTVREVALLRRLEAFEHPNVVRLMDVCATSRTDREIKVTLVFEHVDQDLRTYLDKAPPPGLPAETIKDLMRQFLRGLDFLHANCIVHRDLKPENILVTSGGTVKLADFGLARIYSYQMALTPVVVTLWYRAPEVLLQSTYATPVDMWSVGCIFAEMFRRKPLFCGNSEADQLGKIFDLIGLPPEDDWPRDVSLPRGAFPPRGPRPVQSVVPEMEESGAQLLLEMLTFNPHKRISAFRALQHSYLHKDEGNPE
T2 sequence (P30281 whole entry partner): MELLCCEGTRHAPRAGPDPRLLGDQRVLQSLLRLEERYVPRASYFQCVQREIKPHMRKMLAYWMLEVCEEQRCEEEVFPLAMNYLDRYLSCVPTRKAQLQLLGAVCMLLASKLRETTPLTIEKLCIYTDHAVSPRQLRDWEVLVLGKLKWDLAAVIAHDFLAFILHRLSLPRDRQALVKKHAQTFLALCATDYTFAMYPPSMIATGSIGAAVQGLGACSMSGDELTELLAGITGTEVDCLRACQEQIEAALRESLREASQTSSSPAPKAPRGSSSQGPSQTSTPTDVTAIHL

Structure (SMILES) | IC50 (CDK2) | IC50 (CDK4)
CN1CC[C@H](Oc2nc(NC3CCN(S(=O)(=O)c4cnn(C)c4)CC3)ncc2C#N)C1 [Compound 74] | 10 to 50 nM | 50 to 100 nM
C[C@@H]1COCCN1c1nc(NC2CCN(S(=O)(=O)c3cnn(C)c3)CC2)ncc1C#N [Compound 38] | 10 to 50 nM | 50 to 100 nM
Cn1cc(S(=O)(=O)N2CCC(Nc3ncc(C(F)F)c(O[C@H]4CCOC4)n3)CC2)cn1 [Compound 126] | 10 to 50 nM | 100 to 1000 nM
CS(=O)(=O)N1CCC(Nc2ncc(C#N)c(-c3ccccc3)n2)CC1 [Example 4, 2-((1-(Methylsulfonyl)piperidin-4-yl)amino)-4-phenylpyrimidine-5-carbonitrile] | 10 to 50 nM | 10 to 50 nM
Cn1cc(S(=O)(=O)N2CCC(Nc3ncc(C(F)(F)F)c(O[C@H]4CCOC4)n3)[C@@H](F)C2)cn1 (some centres unmarked) [Compound 120] | 2.5 to 10 nM | 10 to 50 nM
Cn1cc(S(=O)(=O)N2CCC(Nc3ncc(C#N)c(N[C@@H]4CCOC4)n3)CC2)cn1 [Compound 43] | 10 to 50 nM | 100 to 1000 nM
Cn1cc(S(=O)(=O)N2CCC(Nc3ncc(C#N)c(O[C@@H]4CCC[C@H]4O)n3)CC2)cn1 (relative stereo) [Compound 68] | 2.5 to 10 nM | 10 to 50 nM
Cn1cc(S(=O)(=O)N2CCC(Nc3ncc(C#N)c(CC4CCCC4)n3)CC2)cn1 [Example 10, 4-(Cyclopentylmethyl)-2-((1-((1-methyl-1H-pyrazol-4-yl)sulfonyl)piperidin-4-yl)amino)pyrimidine-5-carbonitrile] | 2.5 to 10 nM | 10 to 50 nM
Cn1cc(S(=O)(=O)N2CCC(Nc3ncc(C#N)c(N[C@@H]4CC[C@@H](O)C4)n3)CC2)cn1 (single isomer, unassigned) [Compound 53] | 2.5 to 10 nM | 10 to 50 nM
Cn1cc(S(=O)(=O)N2CCC(Nc3ncc(C#N)c(NC4CCC(F)(F)C4)n3)CC2)cn1 (centres unmarked) [Compound 41] | 2.5 to 10 nM | 10 to 50 nM
CN1CC[C@H](Nc2nc(NC3CCN(S(=O)(=O)c4cnn(C)c4)CC3)ncc2C#N)C1 [Compound 72] | 2.5 to 10 nM | 10 to 50 nM
Cn1cc(S(=O)(=O)N2CC[C@@H](Nc3ncc(C(F)(F)F)c(O[C@H]4CCOC4)n3)[C@@H](F)C2)cn1 [Compound 128] | 10 to 50 nM | 100 to 1000 nM
Cn1cc(S(=O)(=O)N2CCC(Nc3ncc(C(F)(F)F)c(O[C@@H]4COC[C@@H]4F)n3)CC2)cn1 [Compound 124] | 2.5 to 10 nM | 100 to 1000 nM

Second part, the compound after the results:

IC50 (CDK2) | IC50 (CDK4) | Structure (SMILES)
0.5 to 2.5 nM | 10 to 50 nM | N#Cc1cnc(NC2CCN(S(=O)(=O)c3ccc(-c4cn[nH]c4)cc3)CC2)nc1N[C@H]1CCOC1 [Compound 105]
0.5 to 2.5 nM | 10 to 50 nM | Cn1cc(-c2ccc(S(=O)(=O)N3CCC(Nc4ncc(C#N)c(N[C@@H]5CCOC5)n4)CC3)cc2)cn1 [Compound 95]
0.5 to 2.5 nM | 2.5 to 10 nM | Cn1cc(-c2ccc(S(=O)(=O)N3CCC(Nc4ncc(C#N)c(N[C@@H]5CC[C@@H](O)C5)n4)CC3)cc2)cn1 (single isomer, unassigned) [Compound 63]
2.5 to 10 nM | 2.5 to 10 nM | N#Cc1cnc(NC2CCN(S(=O)(=O)c3ccccn3)CC2)nc1NC1CCCC1 [Compound 36]
< 0.5 nM | 2.5 to 10 nM | O=S(=O)(c1cn[nH]c1)N1CCC(Nc2ncc(C(F)(F)F)c(O[C@H]3CCOC3)n2)CC1 [Example 25]
0.5 to 2.5 nM | 2.5 to 10 nM | O=S(=O)(c1ccc(Br)cc1)N1CCC(Nc2ncc(C(F)(F)F)c(O[C@H]3CCOC3)n2)CC1 [Example 99]
2.5 to 10 nM | 10 to 50 nM | Cn1cc(S(=O)(=O)N2CCC(Nc3ncc(C#N)c(O[C@H]4CCOC4)n3)CC2)cn1 [Compound 64]
0.5 to 2.5 nM | 10 to 50 nM | Cn1cc(-c2ccc(S(=O)(=O)N3CCC(Nc4ncc(C#N)c(N[C@@H]5CCC[C@H]5O)n4)CC3)cc2)cn1 [Compound 50]
0.5 to 2.5 nM | 10 to 50 nM | Cn1cc(S(=O)(=O)N2CCC(Nc3ncc(C(F)(F)F)c(O[C@@H]4CCOC4)n3)CC2)cn1 [Compound 88]
0.5 to 2.5 nM | 2.5 to 10 nM | Cn1cc(-c2ccc(S(=O)(=O)N3CCC(Nc4ncc(C#N)c(NC5(C)CCOC5)n4)CC3)cc2)cn1 (centres unmarked) [Compound 150]
0.5 to 2.5 nM | 10 to 50 nM | Cn1cc(S(=O)(=O)N2CCC(Nc3ncc(C(F)(F)F)c(N[C@@H]4CCC[C@H]4O)n3)CC2)cn1 [Compound 54]
0.5 to 2.5 nM | 2.5 to 10 nM | Cn1cc(-c2ccc(S(=O)(=O)N3CCC(Nc4cc(N[C@H]5CCOC5)c(C#N)cn4)CC3)cc2)cn1 [Compound 166]
